How the values were obtained:
MT4 [1] = assay: Cytotoxic activity against human MT4 cells infected with HIV1 by MTT assay; format: functional
MT4 [2] = assay: Antiviral activity against HIV1 3b in human MT4 cells; format: functional, cell-based
[3] = target: Human immunodeficiency virus type 1 integrase (Human immunodeficiency virus 1, UniProt Q7ZJM1); assay: Inhibition of recombinant HIV1 integrase strand transfer activity
Chain of Human immunodeficiency virus type 1 integrase (Q7ZJM1 whole entry): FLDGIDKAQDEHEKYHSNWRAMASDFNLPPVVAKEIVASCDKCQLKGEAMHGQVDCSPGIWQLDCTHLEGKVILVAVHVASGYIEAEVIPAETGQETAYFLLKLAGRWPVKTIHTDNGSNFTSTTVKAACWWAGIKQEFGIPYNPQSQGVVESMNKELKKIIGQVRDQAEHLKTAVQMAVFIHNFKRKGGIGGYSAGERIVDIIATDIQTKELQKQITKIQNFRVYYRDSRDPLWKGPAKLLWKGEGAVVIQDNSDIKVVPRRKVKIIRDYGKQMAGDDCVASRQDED

| IC50 [3] [nM] | Compound | Activity (MT4 [1]) [µM] | EC50 (MT4 [2]) [nM] |
| --- | --- | --- | --- |
| 9.1 | COc1cc2c(cc1Cc1cccc(Cl)c1F)c(=O)c(C(=O)O)cn2CCO | 5.3 | 17.1 |
| – | COc1cc2c(cc1Cc1cccc(Cl)c1F)c(=O)c(C(=O)O)cn2[C@H](CO)C(C)C | 4 | 0.9 |
| – | CC(C)[C@@H](CO)n1cc(C(=O)O)c(=O)c2cc(Cc3cccc(Cl)c3F)ccc21 | 14 | 7.5 |
| 43.5 | O=C(O)c1c[nH]c2ccc(Cc3cccc(Cl)c3F)cc2c1=O | >12 | 805 |
| 24.2 | O=C(O)c1cn(CCO)c2ccc(Cc3cccc(Cl)c3F)cc2c1=O | >15 | 76.3 |
| 1600 | O=C(O)c1cnc2ccc(Cc3ccccc3)cc2c1O | >30 | > 30000 |
| 22.8 | O=C(NCc1ccc(F)cc1)c1nc(N2CCCCS2(=O)=O)c2cccnc2c1O | 0.7 | 3.6 |

— ChEMBL document CHEMBL1138174, “Novel HIV-1 integrase inhibitors derived from quinolone antibiotics” (J Med Chem, 2006)
